Assay results as given in patent US20080194585A1, “Fungicidal Pyrazine Derivatives” (priority 2005, published 2008).
Marks after values point to notes of the source that are not given here.

Key:
Botrytis cinerea = assay: Test E: tomato botrytis, preventive spray on tomato seedlings
fusarium graminearium = assay: Test I: wheat head scab, preventive spray on wheat seedlings
Description: (the causal agent of wheat head scab) and incubated in a saturated atmosphere at 20° C. for 72 h, and then moved to a growth chamber at 22° C. for 5 days, after which disease ratings were made.

[1] = tested on: Erysiphe graminis f. sp. tritici; assay: Test L: wheat powdery mildew, preventive spray on wheat seedlings
Plasmopara viticola = assay: Test D: grape downy mildew, spray after inoculation of grape seedlings; format: in vivo
Source text: Upon removal, disease ratings were made. […] A dash (-) indicates no test results.

[2] = tested on: Puccinia recondita f. sp. tritici; assay: Test K: wheat leaf rust, preventive spray on wheat seedlings
[3] = tested on: Colletotrichum orbiculare; assay: Test B: cucumber Colletotrichum anthracnose, preventive spray on cucumber seedlings
Septoria nodorum = assay: Test H: wheat glum blotch, preventive spray on wheat seedlings
Description: (the causal agent of wheat glum blotch) and incubated in a saturated atmosphere at 20° C. for 48 h, and then moved to a growth chamber at 22° C. for 5 days, after which disease ratings were made.

Septoria tritici = assay: Test J: wheat leaf blotch, preventive spray on wheat seedlings; format: in vivo
Source text: A dash (-) indicates no test results.

Phytophthora infestans = assay: whole plant or invertebrate; format: in vivo
Pythium aphanidermatum = assay: Test A: bluegrass pythium blight, preventive spray on bluegrass seedlings
Rhizoctonia oryzae = assay: Test G: turf brown patch, preventive spray on creeping bent grass seedlings
Description: (the causal agent of turf brown patch) and incubated in a saturated atmosphere at 27° C. for 24 h, and then moved to a growth chamber at 27° C. for 5 days, after which disease ratings were made.

[4] = 200 ppm, 100 = 100% disease control, 0 = no control
[5] = 40 ppm (marked *), 100 = 100% disease control, 0 = no control

Row | SMILES | Test E disease control rating (Botrytis cinerea; [5]) | Test L disease control rating [1, 5] | Test K disease control rating [2, 5] | Test B disease control rating [3, 5] | Test H disease control rating (Septoria nodorum; [5]) | Test J disease control rating (Septoria tritici; [5]) | Test G disease control rating (Rhizoctonia oryzae; [5]) | Test E disease control rating (Botrytis cinerea; 40 ppm (*)) | Test L disease control rating ([1]; 40 ppm (*)) | Test K disease control rating ([2]; 40 ppm (*)) | Test B disease control rating ([3]; 40 ppm (*)) | Test H disease control rating (Septoria nodorum; 40 ppm (*)) | Test J disease control rating (Septoria tritici; 40 ppm (*)) | Test G disease control rating (Rhizoctonia oryzae; 40 ppm (*)) | further results
1 | Cc1ccn(-c2nc(Cl)c(C(C)C)n(Cc3ccccc3)c2=O)n1 [compound 305] |  |  |  |  |  |  |  |  |  |  |  |  |  |  | Test E disease control rating (Botrytis cinerea; [4]): 99%; Test I disease control rating (fusarium graminearium; [4]): 0%; Test L disease control rating [1, 4]: 52%; Test D disease control rating (Plasmopara viticola; [4]): 0%; Test K disease control rating [2, 4]: 97%; Test B disease control rating [3, 4]: 0%; Test H disease control rating (Septoria nodorum; [4]): 0%; Test J disease control rating (Septoria tritici; [4]): 93%; Test F disease control rating (Phytophthora infestans; [4]): 50%; Test A disease control rating (Pythium aphanidermatum; [4]): 0%; Test G disease control rating (Rhizoctonia oryzae; [4]): 16%
2 | CCC(C)Cn1c(-c2c(F)cccc2F)c(Cl)nc(-n2ccnc2)c1=O (stereo not shown) [compound 61] |  |  |  |  |  |  |  |  |  |  |  |  |  |  | Test E disease control rating (Botrytis cinerea; 200 ppm): 0%; Test I disease control rating (fusarium graminearium; 200 ppm): 0%; Test L disease control rating ([1]; 200 ppm): 0%; Test D disease control rating (Plasmopara viticola; 200 ppm): 0%; Test K disease control rating ([2]; 200 ppm): 0%; Test B disease control rating ([3]; 200 ppm): 0%; Test H disease control rating (Septoria nodorum; 200 ppm): 0%; Test J disease control rating (Septoria tritici; 200 ppm): 40%; Test F disease control rating (Phytophthora infestans; 200 ppm): 0%; Test A disease control rating (Pythium aphanidermatum; 200 ppm): 0%; Test G disease control rating (Rhizoctonia oryzae; 200 ppm): 0%
3 | Cc1ccn(-c2nc(Cl)c(-c3c(F)cc(F)cc3F)n(-c3ccccc3)c2=O)n1 [compound 321] | 99* % | 0* % | 99* % | 94* % | 100* % | 100* % | 70* % |  |  |  |  |  |  |  | Test I disease control rating (fusarium graminearium; [5]): 82* %; Test D disease control rating (Plasmopara viticola; [5]): 17* %; Test F disease control rating (Phytophthora infestans; [5]): 0* %; Test A disease control rating (Pythium aphanidermatum; [5]): 0* %
4 | C#CCn1c(-c2c(F)cccc2F)c(Cl)nc(-n2cccn2)c1=O [compound 186] |  |  |  |  |  |  |  | 99* % | 90* % | 100* % | 16* % | 100* % | 92* % | 67* % | Test I disease control rating (fusarium graminearium; 40 ppm (*)): 0* %; Test D disease control rating (Plasmopara viticola; 40 ppm (*)): 0* %; Test F disease control rating (Phytophthora infestans; 40 ppm (*)): 0* %; Test A disease control rating (Pythium aphanidermatum; 40 ppm (*)): 0* %
5 | Cc1ccn(-c2nc(Cl)c(-c3c(F)cccc3F)n(-c3cc(F)cc(F)c3)c2=O)n1 [compound 385] | 99* % | 89* % | 100* % | 99* % | 99* % | 100* % | 78* % |  |  |  |  |  |  |  | Test I disease control rating (fusarium graminearium; [5]): 0* %; Test D disease control rating (Plasmopara viticola; [5]): 0* %; Test F disease control rating (Phytophthora infestans; [5]): 0* %; Test A disease control rating (Pythium aphanidermatum; [5]): 0* %
6 | CCC(C)Cn1c(-c2c(F)cccc2F)c(Cl)nc(-n2ccnn2)c1=O (stereo not shown) [compound 60] |  |  |  |  |  |  |  | 95* % | 0* % | 68* % | 0* % | 0* % | 40* % | 0* % | Test I disease control rating (fusarium graminearium; 200 ppm): 0%; Test D disease control rating (Plasmopara viticola; 200 ppm): 0%; Test F disease control rating (Phytophthora infestans; 200 ppm): 0%; Test A disease control rating (Pythium aphanidermatum; 200 ppm): 0%
7 | Cc1cc(C)cc(-c2c(Cl)nc(-n3cccn3)c(=O)n2CC(C)C)c1 [compound 137] |  |  |  |  |  |  |  | 0* % | 0* % | 0* % | 0* % | 0* % |  | 0* % | Test I disease control rating (fusarium graminearium; 200 ppm): 0%; Test D disease control rating (Plasmopara viticola; 200 ppm): 0%; Test J disease control rating (Septoria tritici; 200 ppm): 30%; Test F disease control rating (Phytophthora infestans; 200 ppm): 0%; Test A disease control rating (Pythium aphanidermatum; 200 ppm): 0%
8 | O=c1c(-n2cccn2)nc(Cl)c(-c2c(F)cccc2F)n1Cc1ccco1 [compound 187] |  |  |  |  |  |  |  | 96* % | 0* % | 91* % | 0* % | 0* % | 77* % | 0* % | Test I disease control rating (fusarium graminearium; 40 ppm (*)): 0* %; Test D disease control rating (Plasmopara viticola; 40 ppm (*)): 0* %; Test F disease control rating (Phytophthora infestans; 40 ppm (*)): 0* %; Test A disease control rating (Pythium aphanidermatum; 40 ppm (*)): 0* %
9 | O=c1c(-n2cccn2)nc(Cl)c(-c2c(F)cc(F)cc2F)n1Cc1ccc(C(F)(F)F)cc1 [compound 346] | 0* % | 0* % | 74* % | 0* % | 0* % | 13* % | 0* % |  |  |  |  |  |  |  | Test I disease control rating (fusarium graminearium; [4]): 0%; Test D disease control rating (Plasmopara viticola; [4]): 0%; Test F disease control rating (Phytophthora infestans; [4]): 0%; Test A disease control rating (Pythium aphanidermatum; [4]): 0%
10 | CCC(C)Cn1c(-c2ccc(F)cc2Cl)c(Cl)nc(-n2cc(C)cn2)c1=O (stereo not shown) [compound 169] |  |  |  |  |  |  |  | 99* % | 75* % | 92* % | 98* % | 97* % | 100* % | 0* % | Test I disease control rating (fusarium graminearium; 40 ppm (*)): 0* %; Test D disease control rating (Plasmopara viticola; 40 ppm (*)): 0* %; Test F disease control rating (Phytophthora infestans; 40 ppm (*)): 0* %; Test A disease control rating (Pythium aphanidermatum; 40 ppm (*)): 0* %
11 | CC(C)Cn1c(-c2c(Cl)cc(C(F)(F)F)cc2Cl)c(Cl)nc(-n2cccn2)c1=O [compound 391] | 0* % | 0* % | 88* % | 0* % | 0* % | 33* % | 0* % |  |  |  |  |  |  |  | Test I disease control rating (fusarium graminearium; [5]): 0* %; Test D disease control rating (Plasmopara viticola; [5]): 0* %; Test F disease control rating (Phytophthora infestans; [5]): 0* %; Test A disease control rating (Pythium aphanidermatum; [5]): 0* %
